Data reported in PubChem BioAssay (NCI).
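Values below derive from 48-hour exposures of cells grown in 96-well plates, with endpoints linearly interpolated between the two concentrations bracketing the appropriate inhibition level. At the GI50, growth is halved. TGI marks complete inhibition of growth.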

Experiments:
Assay in all cases: growth of human tumour cells (NCI), 48 h
UACC-257 melanoma = test system: UACC-257 melanoma
HL-60(TB) leukemia = test system: HL-60(TB) leukemia
SNB-19 CNS = test system: SNB-19 CNS
HOP-62 NSCLC = test system: HOP-62 NSCLC
SK-MEL-28 melanoma = test system: SK-MEL-28 melanoma
CAKI-1 renal = test system: CAKI-1 renal
CCRF-CEM leukemia = test system: CCRF-CEM leukemia
SK-OV-3 ovarian = test system: SK-OV-3 ovarian
A498 renal = test system: A498 renal
NCI/ADR-RES ovarian = test system: NCI/ADR-RES ovarian
SF-295 CNS = test system: SF-295 CNS
K-562 leukemia = test system: K-562 leukemia
OVCAR-3 ovarian = test system: OVCAR-3 ovarian
NCI-H522 lung = test system: NCI-H522 lung
SF-539 CNS = test system: SF-539 CNS
OVCAR-4 ovarian = test system: OVCAR-4 ovarian
SNB-75 CNS = test system: SNB-75 CNS
SK-MEL-5 melanoma = test system: SK-MEL-5 melanoma
TK-10 renal = test system: TK-10 renal
HCT-15 colon = test system: HCT-15 colon
NCI-H23 lung = test system: NCI-H23 lung
NCI-H226 lung = test system: NCI-H226 lung
MCF7 breast = test system: MCF7 breast
M14 melanoma = test system: M14 melanoma
SR leukemia = test system: SR leukemia
RXF 393 renal = test system: RXF 393 renal
UO-31 renal = test system: UO-31 renal
BT-549 breast = test system: BT-549 breast
HOP-92 NSCLC = test system: HOP-92 NSCLC
COLO 205 colon = test system: COLO 205 colon
HCT-116 colon = test system: HCT-116 colon
HT29 colon = test system: HT29 colon
IGROV1 ovarian = test system: IGROV1 ovarian
786-0 renal = test system: 786-0 renal
KM12 colon = test system: KM12 colon
MDA-MB-435 = test system: MDA-MB-435
HS 578T breast = test system: HS 578T breast
SF-268 CNS = test system: SF-268 CNS
NCI-H460 lung = test system: NCI-H460 lung
OVCAR-8 ovarian = test system: OVCAR-8 ovarian
A549 NSCLC = test system: A549 NSCLC
MALME-3M melanoma = test system: MALME-3M melanoma
MOLT-4 leukemia = test system: MOLT-4 leukemia
SK-MEL-2 melanoma = test system: SK-MEL-2 melanoma
RPMI-8226 leukemia = test system: RPMI-8226 leukemia
ACHN renal = test system: ACHN renal
PC-3 prostate = test system: PC-3 prostate
UACC-62 melanoma = test system: UACC-62 melanoma
U251 CNS = test system: U251 CNS
SN12C renal = test system: SN12C renal
SW-620 colon = test system: SW-620 colon
EKVX NSCLC = test system: EKVX NSCLC
HCC-2998 colon = test system: HCC-2998 colon
T-47D breast = test system: T-47D breast
OVCAR-5 ovarian = test system: OVCAR-5 ovarian
MDA-MB-231 breast = test system: MDA-MB-231 breast
DU-145 prostate = test system: DU-145 prostate

CN(CCCl)c1ccc(/C=C/C2=[N+](C)c3ccccc3C2(C)C)cc1
GI50 (UACC-257 melanoma): 657 nM | TGI (UACC-257 melanoma): 7.57 µM | GI50 (HL-60(TB) leukemia): 265 nM | TGI (HL-60(TB) leukemia): 756 nM | GI50 (SNB-19 CNS): 495 nM | TGI (SNB-19 CNS): 15.5 µM | GI50 (HOP-62 NSCLC): 1070 nM | TGI (HOP-62 NSCLC): 10.9 µM | GI50 (SK-MEL-28 melanoma): 685 nM | TGI (SK-MEL-28 melanoma): 15.6 µM | GI50 (CAKI-1 renal): 17.5 µM | TGI (CAKI-1 renal): 43.6 µM | GI50 (CCRF-CEM leukemia): 151 nM | TGI (CCRF-CEM leukemia): 5.75 µM | GI50 (SK-OV-3 ovarian): 713 nM | TGI (SK-OV-3 ovarian): 5.41 µM | GI50 (A498 renal): 1340 nM | TGI (A498 renal): 12.6 µM | GI50 (NCI/ADR-RES ovarian): 65.8 µM | TGI (NCI/ADR-RES ovarian): > 100 µM | GI50 (SF-295 CNS): 728 nM | TGI (SF-295 CNS): 5.14 µM | GI50 (K-562 leukemia): 491 nM | TGI (K-562 leukemia): 83.5 µM | GI50 (OVCAR-3 ovarian): 314 nM | TGI (OVCAR-3 ovarian): 3.15 µM | GI50 (NCI-H522 lung): 296 nM | TGI (NCI-H522 lung): 3.89 µM | GI50 (SF-539 CNS): 2110 nM | TGI (SF-539 CNS): 13.8 µM | GI50 (OVCAR-4 ovarian): 1620 nM | TGI (OVCAR-4 ovarian): 10 µM | GI50 (SNB-75 CNS): 1200 nM | TGI (SNB-75 CNS): 6.91 µM | GI50 (SK-MEL-5 melanoma): 532 nM | TGI (SK-MEL-5 melanoma): 2030 nM | GI50 (TK-10 renal): 2370 nM | TGI (TK-10 renal): 14.9 µM | GI50 (HCT-15 colon): 6.3 µM | TGI (HCT-15 colon): 21.7 µM | GI50 (NCI-H23 lung): 434 nM | TGI (NCI-H23 lung): 11 µM | GI50 (NCI-H226 lung): 1210 nM | TGI (NCI-H226 lung): 14.9 µM | GI50 (MCF7 breast): 516 nM | TGI (MCF7 breast): 10.6 µM | GI50 (M14 melanoma): 1030 nM | TGI (M14 melanoma): 14.8 µM | GI50 (SR leukemia): 332 nM | TGI (SR leukemia): 12.5 µM | GI50 (RXF 393 renal): 1570 nM | TGI (RXF 393 renal): 10.5 µM | GI50 (UO-31 renal): 4.39 µM | TGI (UO-31 renal): 17.4 µM | GI50 (BT-549 breast): 424 nM | TGI (BT-549 breast): 4.85 µM | GI50 (HOP-92 NSCLC): 288 nM | TGI (HOP-92 NSCLC): 2200 nM | GI50 (COLO 205 colon): 339 nM | TGI (COLO 205 colon): 1560 nM | GI50 (HCT-116 colon): 307 nM | TGI (HCT-116 colon): 12.2 µM | GI50 (HT29 colon): 307 nM | TGI (HT29 colon): 11.2 µM | GI50 (IGROV1 ovarian): 1730 nM | TGI (IGROV1 ovarian): 18.6 µM | GI50 (786-0 renal): 3.9 µM | TGI (786-0 renal): 15.9 µM | GI50 (KM12 colon): 355 nM | TGI (KM12 colon): 1550 nM | GI50 (MDA-MB-435): 415 nM | TGI (MDA-MB-435): 2460 nM | GI50 (HS 578T breast): 1530 nM | TGI (HS 578T breast): 32.1 µM | GI50 (SF-268 CNS): 691 nM | TGI (SF-268 CNS): 13.5 µM | GI50 (NCI-H460 lung): 679 nM | TGI (NCI-H460 lung): 10.6 µM | GI50 (OVCAR-8 ovarian): 353 nM | TGI (OVCAR-8 ovarian): 12 µM | GI50 (A549 NSCLC): 900 nM | TGI (A549 NSCLC): 12.5 µM | GI50 (MALME-3M melanoma): 575 nM | TGI (MALME-3M melanoma): 4.3 µM | GI50 (MOLT-4 leukemia): 308 nM | TGI (MOLT-4 leukemia): 1400 nM | GI50 (SK-MEL-2 melanoma): 1330 nM | TGI (SK-MEL-2 melanoma): 5.62 µM | GI50 (RPMI-8226 leukemia): 331 nM | TGI (RPMI-8226 leukemia): 2460 nM | GI50 (ACHN renal): 2190 nM | TGI (ACHN renal): 10.6 µM | GI50 (PC-3 prostate): 243 nM | TGI (PC-3 prostate): 10.6 µM | GI50 (UACC-62 melanoma): 482 nM | TGI (UACC-62 melanoma): 7.68 µM | GI50 (U251 CNS): 253 nM | TGI (U251 CNS): 11.2 µM | GI50 (SN12C renal): 297 nM | TGI (SN12C renal): 1720 nM | GI50 (SW-620 colon): 494 nM | TGI (SW-620 colon): 14 µM | GI50 (EKVX NSCLC): 863 nM | TGI (EKVX NSCLC): 14.9 µM | GI50 (HCC-2998 colon): 1600 nM | TGI (HCC-2998 colon): 12.8 µM | GI50 (T-47D breast): 706 nM | TGI (T-47D breast): 10.2 µM | GI50 (OVCAR-5 ovarian): 3.71 µM | TGI (OVCAR-5 ovarian): 17.1 µM | GI50 (MDA-MB-231 breast): 579 nM | TGI (MDA-MB-231 breast): 5.59 µM | GI50 (DU-145 prostate): 598 nM | TGI (DU-145 prostate): 15.3 µM
